# Test results published in patent US20250376441A1, “NOVEL COMPOUND AND PHARMACEUTICAL COMPOSITION COMPRISING SAME AS ACTIVE INGREDIENT” (Industry-Academic Cooperation Foundation, Yonsei University, priority 2017, published 2025).
# pEC50: −log10 of the molar value.
# Tests used:
# [1] = molecular target: AMP-activated protein kinase (AMPK); assay: AMPK kinase assay (luminescence, purified enzyme, ATP, substrate peptide); assay type: biochemical; conditions: AMPK activation
# Description: In order to identify an effect of the Preparation Example 6 having the highest docking score in Experimental Example 1 on activity of the AMP-activated protein kinase (AMPK), a kinase assay was performed. The kinase assay was performed as follows. […] Then, purified AMP-activated protein kinase and ATP were allowed to react on a substrate peptide for the AMP-activated protein kinase, and degrees of luminescence thereof were shown as EC50 in Table 3 and FIG. 3.
# [2] = test system: Salmonella typhimurium TA100
# Description: (§1) For each strain, treatment with a single concentration of 200 μg/plate was performed in triplicate and mutation was checked.
# Half-life test = assay: Half-life test
# Source text: In order to identify whether the Preparation Example 6 according to the present invention can be orally administered, a half-life of the compound was checked. […] The results are illustrated in FIG. 18.
# [3] = test system: amyloid-beta peptide1-42 degenerative neurological disease-induced mice; assay: Probe test (Morris water maze, platform removed); assay type: in vivo, ICR mice; conditions: donepezil group, 90 seconds without platform, p<0.01 vs beta-amyloid group
# Description: (§2) In order to induce a degenerative neurological disease, the experimental animals of Preparatory Example 1 were anesthetized by inhalation with 2.5% isoflurane. Then, 1 μg of amyloid-beta peptide1-42, a degenerative neurological disease-inducing substance, was administered to the animals at both hippocampal positions (AP: −2.3, L: ±2.0, H: −1.5) using a stereotaxic apparatus. […] For the administration, 1 μl was injected, at a flow rate of 0.2 μl/min, with a […] gas-tight glass syringe (Hamilton, Reno, NV, USA) using a perfusion pump (Pump 22, Harvard Apparatus, South Natick, MA, USA). Subsequently, the syringe was allowed to stand for 5 minutes and then removed.
# (§3) Then, a degenerative neurological disease was induced as in Preparation Example 2.
# (§4) A circular pool (diameter: 120 cm, height: 75 cm) was filled with water to a depth of 25±1 cm as in FIG. 4, and a 24 cm platform was prepared by hiding it 1 cm below the water surface. Space cues were installed on the four sides of the wall so that the aminals can identify locations, and skimmed milk powder was dissolved into water so that the animals cannot identify the platform with naked eyes. One day before the experiment, all the experimental animals were allowed to swim freely for 1 minute in a water bath having no platform, so that the animals can adapt to the swimming situation. After that, a test group was allowed to start, in any order, from two of the three quadrants except the quadrant where the platform was placed, and allowed to find the platform for 60 seconds. In a case where an animal finds the platform, the animal was allowed to stay thereon for 20 seconds. […] As soon as end of the position learning time, which is the 20-second staying time, the animal was allowed to start again from any quadrant, and the time and distance to reach the platform were measured. The procedure was performed four times a day, and all procedures were taken with a camera and analyzed with a video tracking system (Panlab, USA). Probe trials were made on the fifth day after the four-day experiment in toal was completed. The test group was allowed to swim freely for 90 seconds without the platform, thereby performing evaluation on whether the test group holds a memory of the platform location. The results are illustrated in FIGS. 5 to 7.
# The results are illustrated in FIGS. 8 and 9.
# [4] = test system: amyloid-beta peptide1-42 degenerative neurological disease-induced mice; assay: Morris water maze test; assay type: in vivo, ICR mice; conditions: donepezil group
# Source text: Six-week-old ICR mice (male) were purchased, and then examined for general health for 6 days while subjecting them to quarantine and acclimation under an environment of animal breeding room. Then, healthy individuals were selected and used for the experiment. Identification of each individual was made by marking the number of each individual on the tail using a permanent marker, and identification of a breeding box was made by attaching an individual identification card on which test number, test substance name, test item, date of acquisition, acclimation period, date of grouping, test period, sex/animal number, and person in charge are indicated.
# as §2, §3
# After induction of the degenerative neurological disease, the following test was conducted after a one-day recovery period passed.
# as §4
# [5] = test system: Salmonella typhimurium TA98; assay: Ames reverse mutation test, TA98
# Description: as §1
compound,measurement,setting,value
"NC(=O)c1ncn([C@@H]2O[C@H](CO)[C@@H](O)[C@H]2O)c1N [AICAR, reference compound]",pEC50,[1],6.52
"[N-]=[N+]=[N-] [Sodium azide, sodium azide, reference compound]",Reverse mutation [factor] w/o S-9 mix,"[2]; TA100, without S-9, factor versus control",[5.5]
same,Reverse mutation/dish (mean ± SD) w/o S-9 mix,"[2]; TA100, without S-9, Preparation Example 6 at 200 μg/plate, Sodium azide concentration 1",618 ± 13
"Oc1ccc(C=Cc2cc(O)cc(O)c2)cc1 [Resveratrol, reference compound]",half-life,Half-life test,8 to 10 min
"COc1cc2c(cc1OC)C(=O)C(CC1CCN(Cc3ccccc3)CC1)C2 (stereo not drawn) [donepezil, reference compound]",swimming time in the target quadrant,[3],39.04 (±8.68) seconds
same,maximum time to find the platform (escape latency),[4],111.99 (±22.59) seconds
same,minimum time to find the platform (escape latency),[4],30.82 (±13.96) seconds
"O=[N+]([O-])c1ccc2c(c1)Cc1ccccc1-2 [2-Nitrofluorene, 2-nitrofluorene, reference compound]",Reverse mutation [factor] w/o S-9 mix,"[5]; TA98, without S-9, factor versus control",915.0]
same,Reverse mutation/dish (mean ± SD) w/o S-9 mix,"[5]; TA98, without S-9, Preparation Example 6 at 200 μg/plate, 2-Nitrofluorene concentration 2",290 ± 8
